Source: ChEMBL document CHEMBL3632554, “Ligand binding studies, preliminary structure-activity relationship and detailed mechanistic characterization of 1-phenyl-6,6-dimethyl-1,3,5-triazine-2,4-diamine derivatives as inhibitors of Escherichia coli dihydrofolate reductase” (Eur J Med Chem, 2015)
Calls of active or inactive are those of the source. The calls are words filed in the database; no cut-off is given here.

Target: T1, Dihydrofolate reductase (Escherichia coli) (UniProt P0ABQ4)
T1 sequence (whole entry): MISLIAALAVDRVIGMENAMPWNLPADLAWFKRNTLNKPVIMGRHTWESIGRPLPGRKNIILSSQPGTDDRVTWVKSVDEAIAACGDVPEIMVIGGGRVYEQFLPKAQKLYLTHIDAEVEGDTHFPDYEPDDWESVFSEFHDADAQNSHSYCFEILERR
Description: Inhibition of Escherichia coli DHFR assessed as NADP formation by quadratic Morrison plot analysis

| SMILES | Ki(app) |
| --- | --- |
| CN(C)c1ccc(N2C(N)=NC(N)=NC2(C)C)cc1 | inactive |
| CC1(C)N=C(N)N=C(N)N1c1ccc(CCCCc2ccc(Cl)cc2Cl)cc1 | inactive |
